Data as given in PubChem BioAssay (NCI).
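Each compound was tested at five concentrations against cells in 96-well plates for 48 hours. TGI: concentration producing complete growth inhibition.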 Where a SMILES comes first, the peptide text is derived from it. Bridges are numbered along the chain shown (N, C = ends). [ ]: non-standard residue; d: D form. Aib = CC(C)(N)C(=O)O; βAla = NCCC(=O)O

Experiments:
Assay in all cases: NCI-60 cell line screen, 48 h
[1] = tested on: PC-3 prostate
[2] = tested on: BT-549 breast
[3] = tested on: HCC-2998 colon
[4] = tested on: SNB-75 CNS
[5] = tested on: HOP-62 NSCLC
[6] = tested on: NCI-H226 lung
[7] = tested on: SK-MEL-28 melanoma
[8] = tested on: HT29 colon
[9] = tested on: SK-MEL-2 melanoma
[10] = tested on: MDA-N
[11] = tested on: NCI-H522 lung
[12] = tested on: SN12C renal

| Compound | TGI [1] [µM] | TGI [2] [µM] | TGI [3] [µM] | TGI [4] [µM] | TGI [5] [µM] | TGI [6] [µM] | TGI [7] [µM] | TGI [8] [µM] | TGI [9] [µM] | TGI [10] [µM] | TGI [11] [µM] | TGI [12] [µM] |
| --- | --- | --- | --- | --- | --- | --- | --- | --- | --- | --- | --- | --- |
| N#Cc1ccc(C(O)C(F)(F)c2nc3ccccc3o2)cc1 (configuration not stated) | > 100 | > 100 | > 100 | > 100 | > 100 | > 100 | > 100 | > 100 | > 100 | – | – | – |
| O=C(O)c1ccccc1C(=O)NCC1S(=O)(=O)OCCOS1(=O)=O | > 100 | – | > 100 | > 100 | > 100 | > 100 | > 100 | > 100 | > 100 | > 100 | > 100 | > 100 |
| CC1=C(C#N)C(=C(C#N)C#N)OC1(C)Cc1ccccc1 (configuration not stated) | > 100 | > 100 | 89.6 | > 100 | > 100 | 59.3 | > 100 | 78.6 | > 100 | – | 36.8 | > 100 |
| CC(=O)OC[C@H]1CN(OC(C)=O)C[C@@H](n2cc(C)c(=O)[nH]c2=O)O1 | > 100 | > 100 | > 100 | > 100 | > 100 | > 100 | > 100 | – | > 100 | > 100 | – | > 100 |
| COc1ccc(CNc2cnc3cc(N)ccc3n2)cc1 | – | – | > 100 | > 100 | > 100 | > 100 | > 100 | > 100 | > 100 | – | > 100 | > 100 |
| CN1C(=O)C2(C)SC1(c1ccccc1)C1C(=O)N(c3ccccc3)C(=O)C12 (configuration not stated) | > 100 | > 100 | – | – | > 100 | > 100 | > 100 | > 100 | > 100 | > 100 | > 100 | > 100 |
| COc1cc(/C=C2\C(=O)N(C(=O)Cc3ccccc3)N=C2C)cc(OC)c1OC | – | – | > 100 | > 100 | > 100 | > 100 | > 100 | > 100 | > 100 | – | > 100 | > 100 |
| CC(C)(O)C(O)COc1c2c(cc3oc(=O)ccc13)OCO2 (configuration not stated) | – | – | > 100 | > 100 | > 100 | > 100 | > 100 | > 100 | > 100 | – | > 100 | > 100 |
| Cc1c(C)c2ccc(OCC(O)COC(C)C)c(C)c2oc1=O (configuration not stated) | > 100 | – | 43.4 | – | 58.6 | – | > 100 | > 100 | 36.8 | 33 | 45.8 | – |
| CC1(C)NC(=O)C(NC(=O)C(N)CC(=O)O)CCCCNC(=O)CCNC1=O (configuration not stated) (H-DK[Aib][βAla]; lactam 2-C; configuration not given here) | > 100 | > 100 | – | > 100 | > 100 | > 100 | > 100 | > 100 | > 100 | > 100 | > 100 | – |
| CC1=NN(c2cccc(Cl)c2)C2(SCC(=O)N2c2nc3ccccc3s2)C1=CC=Cc1ccccc1 (configuration not stated) | > 100 | – | > 100 | – | > 100 | > 100 | > 100 | > 100 | 59.8 | > 100 | 62.3 | – |
| CC(=O)Nc1ccc2c3c(cc(O)c2c1)N(C(=O)CCCC(=O)N1CC(CCl)c2c1cc(O)c1cc(NC(C)=O)ccc21)CC3CCl (configuration not stated) | 0.421 | 0.306 | – | < 0.0262 | 0.0596 | – | > 100 | – | < 0.0152 | – | 0.0212 | > 100 |
| FC1(F)[Se]C2C3CCC(C3)C2C1(F)F (configuration not stated) | > 100 | – | > 100 | > 100 | > 100 | > 100 | > 100 | – | > 100 | > 100 | > 100 | > 100 |
| COC(=O)CCC(=O)c1ccc2c(c1)CCC2 | > 100 | – | > 100 | > 100 | > 100 | – | > 100 | > 100 | > 100 | > 100 | > 100 | – |
| N#CC12C(=O)NC(=O)C1(C#N)C1C=CC2CC1 (configuration not stated) | > 100 | > 100 | – | > 100 | – | > 100 | > 100 | > 100 | – | > 100 | > 100 | > 100 |
| COc1cc(C2C(Cl)C(=O)N2NC(=O)Cc2ccccc2)cc(Br)c1O (configuration not stated) | – | – | > 100 | > 100 | > 100 | > 100 | > 100 | > 100 | > 100 | – | > 100 | > 100 |
| OC1(C(Sc2cc(C(F)(F)F)cc(C(F)(F)F)c2)Sc2cc(C(F)(F)F)cc(C(F)(F)F)c2)C=CCCC1 (configuration not stated) | – | 9.89 | 3.25 | 10.8 | 11.4 | – | 9.12 | 7.24 | – | 8.16 | 5.75 | 6.77 |
| C=C(C)C12CC3CC(/C(=N/O)C(C1)/C3=N\O)[C@@]2(C)O (some centres not stated) | – | – | > 100 | > 100 | > 100 | > 100 | > 100 | > 100 | > 100 | – | > 100 | > 100 |
| CC(=O)c1nc2ccccc2n1C(C)C(=O)c1ccccc1 (configuration not stated) | > 100 | > 100 | – | > 100 | > 100 | > 100 | > 100 | > 100 | – | > 100 | > 100 | > 100 |
| Cc1cc(S(=O)(=O)Nc2n[nH]c(-c3ccc(Cl)cc3)n2)c(SSc2cc(Cl)c(C)cc2S(=O)(=O)Nc2n[nH]c(-c3ccc(Cl)cc3)n2)cc1Cl | 84.6 | > 100 | 40.7 | 76.1 | > 100 | 73.3 | 96.4 | 57.2 | – | > 100 | 83.9 | > 100 |
| CSC12c3cc(C)n(-c4ccc([N+](=O)[O-])cc4)c3CC(C)(C)CN1C(=O)C2Oc1ccccc1 (configuration not stated) | > 100 | > 100 | > 100 | > 100 | > 100 | > 100 | > 100 | – | > 100 | > 100 | – | > 100 |
| COc1cccc2c1c1ccc3c(c1n2C)C(=O)C=CC3=O | – | – | > 100 | – | > 100 | > 100 | 33.4 | 12.6 | 33 | – | 14.7 | 41.5 |
